# In US20150065499A1, “3-AMINOTHIENO[3,2-c]QUINOLINE DERIVATIVES, METHODS OF PREPARATION AND USES” (TEMPLE UNIVERSITY - OF THE COMMONWEALTH SYSTEM OF HIGHER …, priority 2012, published 2015):
# Like-named read-outs stand apart in the source and are kept apart here.
# How the values were obtained:
# [1] = target: T1, Human PI3Kβ (p110β/p85α) (Homo sapiens, UniProt P42338); test: PI3K isoform HTRF enzyme assay, PI3Kβ; assay type: biochemical
# T1 construct: N-terminal 6His-tagged recombinant full-length human p110β; 6His (N); host or cells: Baculovirus infected Sf21 cells
# Experimental: (§1) The compound of Example 18, methyl 3-(4-fluorobenzamido)-7,8-dimethoxythieno[3,2-c]quinoline-2-carboxylate, was tested for ability to inhibit the four PI3K isoforms PI3Kα, PI3Kβ, PI3Kδ and PI3Kγ in a homogeneous time-resolved fluorescence (HTRF) enzyme assay.
# (§2) The assay relies on the action of the aforesaid kinases on the substrate phosphatidylinositol (4,5)-bisphosphate (PIP2), providing the product phosphatidylinositol (3,4,5)-trisphosphate (PIP3). The PIP3 product is detected by displacement of biotin-PIP3 from an energy transfer complex consisting of Europium labeled anti-GST monoclonal antibody, a GST-tagged pleckstrin homology (PH) domain, biotinylated PIP3 and Streptavidin-Allophycocyanin (APC). Excitation of Europium in the complex results in an energy transfer to the APC and a fluorescent emission at 665 nm. The PIP3 product formed by PI 3-kinase(h) activity displaces biotin-PIP3 from the complex resulting in a loss of energy transfer and thus a decrease in signal. […]
# (§3) The enzymes (PI3Kα, PI3Kβ, PI3Kδ or PI3Kγ) were delivered into the following kinase reaction buffer containing 10 μM PIP2 substrate: HEPES 50 mM (pH7.0), NaN3 0.02%, BSA 0.01%, Orthovanadate 0.1 mM, 1% DMSO. […] Homogeneous time-resolved fluorescence (HTRF) was measured (Ex=320 nm, ratio of Em=615 nm and Em=665 nm). […]
# [2] = target: T2, Human PI3Kα (p110α/p85α) (Homo sapiens, UniProt P42336); test: PI3K isoform HTRF enzyme assay, PI3Kα; assay type: biochemical
# T2 construct: N-terminal GST-tagged recombinant full-length human p110α; GST (N); host or cells: Baculovirus infected Sf9 cells
# Experimental: as §1, §2, §3
# [3] = target: T3, Human PI3Kγ (p120γ) (Homo sapiens, UniProt P48736); test: PI3K isoform HTRF enzyme assay, PI3Kγ; assay type: biochemical
# T3 construct: His (N); host or cells: Baculovirus infected insect cells (printed 'SP)', probably a misprint of Sf9)
# Experimental: as §1, §2, §3
# [4] = system: DU145 (prostate cancer); test: Cancer cell assay, DU145 tumor cells, viable cells after 96 hours; assay type: cell-based; conditions: Homo sapiens, DU-145, 96 hours after treatment, called IC50
# Experimental: (§4) The effect of the compounds of the invention on tumor cells was determined by the assay described by Latham et al., Oncogene 12:827-837 (1996). Tumor cells K562 (chronic myelogenous leukemia; leukemia cell line +ve for Bcr-Abl) or DU145 (prostate cancer) were plated in 12-well dishes at a cell density of 2.5×10^4 cells well. The plated cells were treated 24 hours later with a compound of the invention dissolved in DMSO at multiple concentrations ranging from 0.01 μM to 100 μM. The plates were examined 96 hours later under an inverted microscope, Olympus CK-2 using a 10× objective, and compound activity was noted by physical observation. When necessary, the total number of viable cells was determined by trypsinizing the wells and counting the number of viable cells, as determined by trypan blue exclusion, using a hemacytometer.
# [5] = system: K562 (chronic myelogenous leukemia; leukemia cell line +ve for Bcr-Abl); test: Cancer cell assay, K562 tumor cells, viable cells after 96 hours; assay type: cell-based; conditions: Homo sapiens, 96 hours after treatment, called IC50
# Experimental: as §4
# [6] = target: T4, Human PI3Kδ (p110δ/p85α) (Homo sapiens, UniProt O00329); test: PI3K isoform HTRF enzyme assay, PI3Kδ; assay type: biochemical; conditions: for IC50: 10 μM PIP2, 10 μM ATP, HTRF, read-out: IC50 against PI3Kδ
# T4 construct: N-terminal GST tagged recombinant full-length human p110δ; GST (N); host or cells: Baculovirus infected Sf9 cells
# Experimental: as §1, §2, §3
# T4 sequence (O00329 whole entry, canonical isoform): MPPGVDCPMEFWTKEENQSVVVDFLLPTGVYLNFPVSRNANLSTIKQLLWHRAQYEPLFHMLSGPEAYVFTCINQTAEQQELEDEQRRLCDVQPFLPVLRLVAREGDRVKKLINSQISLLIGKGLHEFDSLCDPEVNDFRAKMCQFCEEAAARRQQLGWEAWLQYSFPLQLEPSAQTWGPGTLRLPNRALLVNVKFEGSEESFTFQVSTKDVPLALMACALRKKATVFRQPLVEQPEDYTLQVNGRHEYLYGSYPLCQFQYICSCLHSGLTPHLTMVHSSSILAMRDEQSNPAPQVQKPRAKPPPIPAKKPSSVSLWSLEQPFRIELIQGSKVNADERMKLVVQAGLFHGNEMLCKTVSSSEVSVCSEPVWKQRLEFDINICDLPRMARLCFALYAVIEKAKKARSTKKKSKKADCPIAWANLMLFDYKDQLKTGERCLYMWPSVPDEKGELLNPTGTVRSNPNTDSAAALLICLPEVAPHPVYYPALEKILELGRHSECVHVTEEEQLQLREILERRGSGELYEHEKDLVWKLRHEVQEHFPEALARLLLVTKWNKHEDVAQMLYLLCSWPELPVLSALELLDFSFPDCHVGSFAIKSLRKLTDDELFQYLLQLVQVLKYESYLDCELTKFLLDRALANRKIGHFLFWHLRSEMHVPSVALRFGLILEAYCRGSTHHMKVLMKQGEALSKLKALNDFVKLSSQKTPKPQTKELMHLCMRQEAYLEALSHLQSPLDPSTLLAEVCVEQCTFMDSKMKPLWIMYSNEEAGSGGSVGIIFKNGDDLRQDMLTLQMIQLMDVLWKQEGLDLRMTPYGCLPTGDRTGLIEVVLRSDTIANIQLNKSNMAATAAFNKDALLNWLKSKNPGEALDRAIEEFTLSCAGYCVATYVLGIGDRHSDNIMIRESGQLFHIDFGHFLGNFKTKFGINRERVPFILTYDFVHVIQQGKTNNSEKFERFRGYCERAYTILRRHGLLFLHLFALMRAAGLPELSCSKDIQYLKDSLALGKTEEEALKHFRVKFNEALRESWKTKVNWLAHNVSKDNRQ
# T4 sequence (P27986 whole entry partner, canonical isoform): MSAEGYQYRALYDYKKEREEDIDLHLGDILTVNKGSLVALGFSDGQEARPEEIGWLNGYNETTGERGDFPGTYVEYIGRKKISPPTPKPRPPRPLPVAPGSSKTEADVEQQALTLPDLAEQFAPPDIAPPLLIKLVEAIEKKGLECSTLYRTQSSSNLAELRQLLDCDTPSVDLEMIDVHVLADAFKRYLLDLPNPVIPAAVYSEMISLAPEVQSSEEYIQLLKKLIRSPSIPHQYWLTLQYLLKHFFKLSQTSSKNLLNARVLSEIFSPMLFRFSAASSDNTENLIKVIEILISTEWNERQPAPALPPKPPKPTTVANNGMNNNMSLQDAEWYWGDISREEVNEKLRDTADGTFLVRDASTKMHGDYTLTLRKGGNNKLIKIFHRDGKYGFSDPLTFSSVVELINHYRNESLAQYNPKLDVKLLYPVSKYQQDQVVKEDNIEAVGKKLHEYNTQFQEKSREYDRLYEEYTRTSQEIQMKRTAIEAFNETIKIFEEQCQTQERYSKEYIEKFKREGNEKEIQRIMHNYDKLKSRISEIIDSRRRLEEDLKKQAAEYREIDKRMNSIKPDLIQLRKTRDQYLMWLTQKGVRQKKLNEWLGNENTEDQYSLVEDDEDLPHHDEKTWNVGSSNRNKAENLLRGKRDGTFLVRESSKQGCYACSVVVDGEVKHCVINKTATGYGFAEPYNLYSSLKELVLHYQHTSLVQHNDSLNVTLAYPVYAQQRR
# T3 sequence (P48736 whole entry, canonical isoform): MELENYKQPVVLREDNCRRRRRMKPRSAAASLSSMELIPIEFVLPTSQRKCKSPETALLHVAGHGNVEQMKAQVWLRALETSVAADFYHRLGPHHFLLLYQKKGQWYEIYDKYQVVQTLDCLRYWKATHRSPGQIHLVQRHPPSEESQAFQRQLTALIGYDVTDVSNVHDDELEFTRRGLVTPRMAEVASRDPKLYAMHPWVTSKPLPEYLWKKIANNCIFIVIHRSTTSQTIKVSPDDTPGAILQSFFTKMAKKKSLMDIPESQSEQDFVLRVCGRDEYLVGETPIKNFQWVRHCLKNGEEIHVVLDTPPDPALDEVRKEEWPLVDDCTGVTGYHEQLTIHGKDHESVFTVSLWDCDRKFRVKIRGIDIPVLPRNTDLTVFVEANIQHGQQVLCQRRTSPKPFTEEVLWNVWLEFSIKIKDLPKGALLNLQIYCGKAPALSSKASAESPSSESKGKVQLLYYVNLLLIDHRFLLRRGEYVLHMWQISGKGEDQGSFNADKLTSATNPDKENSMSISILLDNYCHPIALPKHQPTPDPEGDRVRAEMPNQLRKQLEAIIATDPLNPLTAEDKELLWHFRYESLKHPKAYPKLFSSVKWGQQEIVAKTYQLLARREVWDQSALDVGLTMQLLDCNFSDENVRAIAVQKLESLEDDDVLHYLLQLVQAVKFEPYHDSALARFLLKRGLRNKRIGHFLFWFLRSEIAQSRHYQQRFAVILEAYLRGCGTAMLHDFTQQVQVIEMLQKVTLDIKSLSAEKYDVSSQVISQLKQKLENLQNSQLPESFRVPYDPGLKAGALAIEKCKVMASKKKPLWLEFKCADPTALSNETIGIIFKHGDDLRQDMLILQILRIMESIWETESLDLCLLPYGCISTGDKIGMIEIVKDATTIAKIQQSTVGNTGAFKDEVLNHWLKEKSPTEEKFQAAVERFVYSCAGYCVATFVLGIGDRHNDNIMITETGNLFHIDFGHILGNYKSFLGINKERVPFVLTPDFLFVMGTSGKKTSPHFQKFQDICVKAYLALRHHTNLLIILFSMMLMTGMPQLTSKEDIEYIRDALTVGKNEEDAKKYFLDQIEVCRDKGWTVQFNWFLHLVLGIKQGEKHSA
# T2 sequence (P42336 whole entry, canonical isoform): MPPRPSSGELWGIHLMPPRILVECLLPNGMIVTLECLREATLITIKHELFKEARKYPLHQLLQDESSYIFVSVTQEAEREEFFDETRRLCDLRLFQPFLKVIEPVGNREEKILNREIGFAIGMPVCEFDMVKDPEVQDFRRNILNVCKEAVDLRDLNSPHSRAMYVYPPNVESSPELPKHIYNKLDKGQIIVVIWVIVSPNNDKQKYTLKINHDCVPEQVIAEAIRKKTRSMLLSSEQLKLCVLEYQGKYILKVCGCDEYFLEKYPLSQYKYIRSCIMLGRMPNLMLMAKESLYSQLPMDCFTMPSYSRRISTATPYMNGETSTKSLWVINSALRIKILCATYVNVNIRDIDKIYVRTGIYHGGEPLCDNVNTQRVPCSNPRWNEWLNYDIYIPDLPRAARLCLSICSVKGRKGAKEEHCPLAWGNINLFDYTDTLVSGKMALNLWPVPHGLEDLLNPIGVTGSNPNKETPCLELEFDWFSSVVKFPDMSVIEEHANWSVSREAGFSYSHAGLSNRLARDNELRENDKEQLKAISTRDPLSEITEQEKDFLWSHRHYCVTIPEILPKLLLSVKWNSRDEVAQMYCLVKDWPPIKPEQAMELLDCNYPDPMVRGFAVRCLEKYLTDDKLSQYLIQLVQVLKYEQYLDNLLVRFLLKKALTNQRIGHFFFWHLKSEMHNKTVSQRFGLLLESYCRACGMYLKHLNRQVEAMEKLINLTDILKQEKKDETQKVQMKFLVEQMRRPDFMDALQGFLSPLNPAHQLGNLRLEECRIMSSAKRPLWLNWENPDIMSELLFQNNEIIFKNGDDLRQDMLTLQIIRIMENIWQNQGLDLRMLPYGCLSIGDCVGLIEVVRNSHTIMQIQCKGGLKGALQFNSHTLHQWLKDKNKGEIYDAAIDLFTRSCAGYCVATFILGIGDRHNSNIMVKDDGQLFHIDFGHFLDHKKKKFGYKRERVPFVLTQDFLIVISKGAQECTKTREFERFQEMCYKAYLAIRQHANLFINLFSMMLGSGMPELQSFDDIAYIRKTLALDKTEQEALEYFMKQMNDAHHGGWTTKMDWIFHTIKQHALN
# T2 sequence (P27986 whole entry partner, canonical isoform): as the sequence (P27986 whole entry partner, canonical isoform) above
# T1 sequence (P42338 whole entry, canonical isoform): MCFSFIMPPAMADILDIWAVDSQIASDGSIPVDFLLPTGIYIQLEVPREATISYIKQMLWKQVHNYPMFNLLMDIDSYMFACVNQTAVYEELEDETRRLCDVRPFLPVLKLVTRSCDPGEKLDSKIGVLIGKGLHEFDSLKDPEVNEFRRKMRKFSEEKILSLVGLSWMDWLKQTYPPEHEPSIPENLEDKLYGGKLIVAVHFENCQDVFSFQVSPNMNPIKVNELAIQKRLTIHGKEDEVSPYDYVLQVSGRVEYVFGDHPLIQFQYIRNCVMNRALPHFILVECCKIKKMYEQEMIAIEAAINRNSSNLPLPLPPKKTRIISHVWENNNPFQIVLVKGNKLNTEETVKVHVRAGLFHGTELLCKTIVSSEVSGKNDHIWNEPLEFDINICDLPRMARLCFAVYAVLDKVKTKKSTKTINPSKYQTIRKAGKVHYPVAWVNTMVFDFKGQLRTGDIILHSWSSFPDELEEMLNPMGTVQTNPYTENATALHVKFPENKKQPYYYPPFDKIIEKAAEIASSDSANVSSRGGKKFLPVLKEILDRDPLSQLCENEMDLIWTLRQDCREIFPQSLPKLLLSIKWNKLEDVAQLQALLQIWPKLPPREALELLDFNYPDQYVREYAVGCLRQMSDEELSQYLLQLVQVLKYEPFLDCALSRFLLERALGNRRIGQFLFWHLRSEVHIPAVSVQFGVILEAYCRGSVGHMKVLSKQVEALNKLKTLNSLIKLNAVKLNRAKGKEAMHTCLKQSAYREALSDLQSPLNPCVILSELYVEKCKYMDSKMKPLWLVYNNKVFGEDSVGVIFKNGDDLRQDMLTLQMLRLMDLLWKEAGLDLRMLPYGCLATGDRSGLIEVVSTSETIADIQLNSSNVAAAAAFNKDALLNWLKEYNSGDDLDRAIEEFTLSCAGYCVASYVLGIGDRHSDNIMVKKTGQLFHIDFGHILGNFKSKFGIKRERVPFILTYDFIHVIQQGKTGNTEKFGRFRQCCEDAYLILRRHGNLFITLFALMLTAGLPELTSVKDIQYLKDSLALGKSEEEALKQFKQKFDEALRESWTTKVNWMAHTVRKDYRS
# T1 sequence (P27986 whole entry partner, canonical isoform): as the sequence (P27986 whole entry partner, canonical isoform) above
SMILES,"IC50 ([1]; 10 μM PIP2, 10 μM ATP, HTRF, read-out: IC50 against PI3Kβ) [nM]","inhibition of other isoforms of PI3K (PI3Kβ), in words ([1]; Table 2)","IC50 ([2]; 10 μM PIP2, 10 μM ATP, HTRF, read-out: IC50 against PI3Kα) [nM]","inhibition of other isoforms of PI3K (PI3Kα), in words ([2]; Table 2)","IC50 ([3]; 10 μM PIP2, 10 μM ATP, HTRF, read-out: IC50 against PI3Kγ) [nM]","IC50 ([3]; Table 2, read-out: IC50 against PI3Kγ isoform) [nM]","selective inhibition of the activity of PI3Kγ, in words ([3]; statement in description)",IC50 [4] [nM],IC50 [5] [nM],melting point [°C],IC50 [6] [nM],"inhibition of other isoforms of PI3K (PI3Kδ), in words ([6]; Table 2)"
"COC(=O)c1sc2c(cnc3cc(OC)c(OC)cc32)c1NC(=O)c1ccc(F)cc1 [Example 18, Methyl 3-(4-fluorobenzamido)-7,8-dimethoxythieno[3,2-c]quinoline-2-carboxylate]",8540,does not inhibit,25300,does not inhibit,1010,1000,selectively inhibits,2500,150,196 to 198,25700,does not inhibit
"O=c1cc(N2CCOCC2)oc2c(-c3ccccc3)cccc12 [LY294002, 2-(4-morpholinyl)-8-phenyl-chromone, reference compound]",,,,,,,,,,,320,
